Activity calls are given as the source filed them. No cut-off for these calls is given here.
What was measured:
Nucleic Acid [1] = experiment: Induction of photochemical DNA cleavage in Escherichia coli pBR322 assessed as form I level at 15 uM in pH 8.0 phosphate buffer measured after 2 mins of UV irradiation; format: nucleic-acid assay
Nucleic Acid [2] = experiment: Induction of photochemical DNA cleavage in Escherichia coli pBR322 assessed as form I level at 15 uM in pH 7.0 phosphate buffer measured after 2 mins of UV irradiation; format: nucleic-acid assay
Nucleic Acid [3] = experiment: Induction of photochemical DNA cleavage in Escherichia coli pBR322 assessed as form 3 level at 15 uM in pH 8.0 phosphate buffer measured after 1 min of UV irradiation; format: nucleic-acid assay
Nucleic Acid [4] = experiment: Induction of photochemical DNA cleavage in Escherichia coli pBR322 assessed as form 2 level at 15 uM in pH 6.0 phosphate buffer measured after 8 mins of UV irradiation; format: nucleic-acid assay
Nucleic Acid [5] = experiment: Induction of photochemical DNA cleavage in Escherichia coli pBR322 assessed as form 3 level at 15 uM in pH 7.0 phosphate buffer measured after 8 mins of UV irradiation; format: nucleic-acid assay
Nucleic Acid [6] = experiment: Induction of photochemical DNA cleavage in Escherichia coli pBR322 assessed as form I level at 15 uM in pH 7.0 phosphate buffer measured after 4 mins of UV irradiation; format: nucleic-acid assay
Nucleic Acid [7] = experiment: Induction of photochemical DNA cleavage in Escherichia coli pBR322 assessed as form I level at 15 uM in pH 8.0 phosphate buffer measured after 10 mins of UV irradiation; format: nucleic-acid assay
Nucleic Acid [8] = experiment: Induction of photochemical DNA cleavage in Escherichia coli pBR322 assessed as form 3 level at 15 uM in pH 8.0 phosphate buffer measured after 10 mins of UV irradiation; format: nucleic-acid assay
Nucleic Acid [9] = experiment: Induction of photochemical DNA cleavage in Escherichia coli pBR322 assessed as form 3 level at 15 uM in pH 6.0 phosphate buffer measured after 6 mins of UV irradiation; format: nucleic-acid assay
Nucleic Acid [10] = experiment: Induction of photochemical DNA cleavage in Escherichia coli pBR322 assessed as form 2 level at 15 uM in pH 7.0 phosphate buffer measured after 6 mins of UV irradiation; format: nucleic-acid assay
Nucleic Acid [11] = experiment: Induction of photochemical DNA cleavage in Escherichia coli pBR322 assessed as form I level at 15 uM in pH 7.0 phosphate buffer measured after 6 mins of UV irradiation; format: nucleic-acid assay
Nucleic Acid [12] = experiment: Induction of photochemical DNA cleavage in Escherichia coli pBR322 assessed as form 3 level at 15 uM in pH 8.0 phosphate buffer measured after 2 mins of UV irradiation; format: nucleic-acid assay
Nucleic Acid [13] = experiment: Induction of photochemical DNA cleavage in Escherichia coli pBR322 assessed as form 2 level at 15 uM in pH 8.0 phosphate buffer measured after 6 mins of UV irradiation; format: nucleic-acid assay
Nucleic Acid [14] = experiment: Induction of photochemical DNA cleavage in Escherichia coli pBR322 assessed as form I level at 15 uM in pH 7.0 phosphate buffer measured after 8 mins of UV irradiation; format: nucleic-acid assay
A-375 = experiment: Drug uptake in human A375 cells at 30 uM incubated for 30 mins by fluorescence microscopy; format: ADME, cell-based; details: a-375, 0.5 h
Nucleic Acid [15] = experiment: Induction of DNA cleavage in Escherichia coli pBR322 at 10 uM in pH 6.0 phosphate buffer measured after of UV irradiation; format: nucleic-acid assay
Nucleic Acid [16] = experiment: Induction of photochemical DNA cleavage in Escherichia coli pBR322 assessed as form 2 level at 15 uM in pH 6.0 phosphate buffer measured after 4 mins of UV irradiation; format: nucleic-acid assay
Nucleic Acid [17] = experiment: Induction of photochemical DNA cleavage in Escherichia coli pBR322 assessed as form 3 level at 15 uM in pH 7.0 phosphate buffer measured after 1 min of UV irradiation; format: nucleic-acid assay
Nucleic Acid [18] = experiment: Induction of photochemical DNA cleavage in Escherichia coli pBR322 assessed as form I level at 15 uM in pH 6.0 phosphate buffer measured after 10 mins of UV irradiation; format: nucleic-acid assay
Nucleic Acid [19] = experiment: Induction of photochemical DNA cleavage in Escherichia coli pBR322 assessed as form 3 level at 15 uM in pH 7.0 phosphate buffer measured after 4 mins of UV irradiation; format: nucleic-acid assay
Nucleic Acid [20] = experiment: Induction of photochemical DNA cleavage in Escherichia coli pBR322 assessed as form 2 level at 15 uM in pH 7.0 phosphate buffer measured after 1 min of UV irradiation; format: nucleic-acid assay
Nucleic Acid [21] = experiment: Induction of photochemical DNA cleavage in Escherichia coli pBR322 assessed as form 2 level at 15 uM in pH 7.0 phosphate buffer measured after 2 mins of UV irradiation; format: nucleic-acid assay
Nucleic Acid [22] = experiment: Induction of DNA damage in human […] cells at 30 uM incubated for 3 hrs by single cell gel electrophoresis; format: cell-based
Nucleic Acid [23] = experiment: Induction of photochemical DNA cleavage in Escherichia coli pBR322 assessed as form 3 level at 15 uM in pH 6.0 phosphate buffer measured after 2 mins of UV irradiation; format: nucleic-acid assay
Nucleic Acid [24] = experiment: Induction of DNA cleavage in Escherichia coli pBR322 assessed as form3/form2 ratio at 15 uM at pH 6 to 9 after 10 mins of UV irradiation; format: nucleic-acid assay
Nucleic Acid [25] = experiment: Induction of photochemical DNA cleavage in Escherichia coli pBR322 assessed as form 2 level at 15 uM in pH 8.0 phosphate buffer measured after 2 mins of UV irradiation; format: nucleic-acid assay
Nucleic Acid [26] = experiment: Induction of photochemical DNA cleavage in Escherichia coli pBR322 assessed as form 3 level at 15 uM in pH 6.0 phosphate buffer measured after 10 mins of UV irradiation; format: nucleic-acid assay
Nucleic Acid [27] = experiment: Induction of DNA cleavage in Escherichia coli pBR322 at 5 uM in pH 6.0 phosphate buffer measured after of UV irradiation; format: nucleic-acid assay
Nucleic Acid [28] = experiment: Induction of photochemical DNA cleavage in Escherichia coli pBR322 assessed as form 3 level at 15 uM in pH 6.0 phosphate buffer measured after 0.5 mins of UV irradiation; format: nucleic-acid assay
Nucleic Acid [29] = experiment: Induction of photochemical DNA cleavage in Escherichia coli pBR322 assessed as form 2 level at 15 uM in pH 6.0 phosphate buffer measured after 1 min of UV irradiation; format: nucleic-acid assay
Nucleic Acid [30] = experiment: Induction of photochemical DNA cleavage in Escherichia coli pBR322 assessed as form 2 level at 15 uM in pH 7.0 phosphate buffer measured after 8 mins of UV irradiation; format: nucleic-acid assay
Nucleic Acid [31] = experiment: Induction of DNA cleavage in Escherichia coli pBR322 at 15 uM in pH 6.0 phosphate buffer measured after of UV irradiation; format: nucleic-acid assay
Nucleic Acid [32] = experiment: Induction of photochemical DNA cleavage in Escherichia coli pBR322 assessed as form 3 level at 15 uM in pH 8.0 phosphate buffer measured after 4 mins of UV irradiation; format: nucleic-acid assay
Nucleic Acid [33] = experiment: Induction of photochemical DNA cleavage in Escherichia coli pBR322 assessed as form 3 level at 15 uM in pH 6.0 phosphate buffer measured after 1 min of UV irradiation; format: nucleic-acid assay
Nucleic Acid [34] = experiment: Induction of photochemical DNA cleavage in Escherichia coli pBR322 assessed as form 3 level at 15 uM in pH 7.0 phosphate buffer measured after 10 mins of UV irradiation; format: nucleic-acid assay
Nucleic Acid [35] = experiment: Induction of photochemical DNA cleavage in Escherichia coli pBR322 assessed as form I level at 15 uM in pH 6.0 phosphate buffer measured after 4 mins of UV irradiation; format: nucleic-acid assay

NCCCC[C@H](N)C(=O)NCCCC[C@H](N)C(=O)Nc1ccc(C#Cc2c(F)c(F)nc(F)c2F)cc1.O=C(O)C(F)(F)F
Activity (Nucleic Acid [1]): 77.8% | Activity (Nucleic Acid [2]): 45.8% | Activity (Nucleic Acid [3]): 0% | Activity (Nucleic Acid [4]): 35% | Activity (Nucleic Acid [5]): 28.1% | Activity (Nucleic Acid [6]): 22.6% | Activity (Nucleic Acid [7]): 26.3% | Activity (Nucleic Acid [8]): 21.3% | Activity (Nucleic Acid [9]): 51.9% | Activity (Nucleic Acid [10]): 47.2% | Activity (Nucleic Acid [11]): 24.7% | Activity (Nucleic Acid [12]): 0% | Activity (Nucleic Acid [13]): 59.2% | Activity (Nucleic Acid [14]): 20.9% | Drug uptake (A-375): Active | Activity (Nucleic Acid [15]): 75% | Activity (Nucleic Acid [16]): 65.1% | Activity (Nucleic Acid [17]): 0% | Activity (Nucleic Acid [18]): 0% | Activity (Nucleic Acid [19]): 25% | Activity (Nucleic Acid [20]): 47.3% | Activity (Nucleic Acid [21]): 41.5% | Activity (Nucleic Acid [22]): Active | Activity (Nucleic Acid [23]): 28.4% | Ratio (Nucleic Acid [24]): 2 | Activity (Nucleic Acid [25]): 22.2% | Activity (Nucleic Acid [26]): 78.7% | Activity (Nucleic Acid [27]): 50% | Activity (Nucleic Acid [28]): 13.5% | Activity (Nucleic Acid [29]): 52.7% | Activity (Nucleic Acid [30]): 51% | Activity (Nucleic Acid [31]): 159% | Activity (Nucleic Acid [32]): 0% | Activity (Nucleic Acid [33]): 17.1% | Activity (Nucleic Acid [34]): 40.5% | Activity (Nucleic Acid [35]): 0%

— ChEMBL document CHEMBL2157896, “Engineering pH-gated transitions for selective and efficient double-strand DNA photocleavage in hypoxic tumors” (J Med Chem, 2011)
